# Experimental data taken from PMC4669708 (Cell Death & Disease, 2015).
# How the values were obtained:
# [1] = molecular target: T1, TAB2 (Homo sapiens, UniProt Q9NYJ8); test: c-ponatinib pulldown LC-MS/MS; assay type: binding
# T1 sequence (Q9NYJ8 1-693): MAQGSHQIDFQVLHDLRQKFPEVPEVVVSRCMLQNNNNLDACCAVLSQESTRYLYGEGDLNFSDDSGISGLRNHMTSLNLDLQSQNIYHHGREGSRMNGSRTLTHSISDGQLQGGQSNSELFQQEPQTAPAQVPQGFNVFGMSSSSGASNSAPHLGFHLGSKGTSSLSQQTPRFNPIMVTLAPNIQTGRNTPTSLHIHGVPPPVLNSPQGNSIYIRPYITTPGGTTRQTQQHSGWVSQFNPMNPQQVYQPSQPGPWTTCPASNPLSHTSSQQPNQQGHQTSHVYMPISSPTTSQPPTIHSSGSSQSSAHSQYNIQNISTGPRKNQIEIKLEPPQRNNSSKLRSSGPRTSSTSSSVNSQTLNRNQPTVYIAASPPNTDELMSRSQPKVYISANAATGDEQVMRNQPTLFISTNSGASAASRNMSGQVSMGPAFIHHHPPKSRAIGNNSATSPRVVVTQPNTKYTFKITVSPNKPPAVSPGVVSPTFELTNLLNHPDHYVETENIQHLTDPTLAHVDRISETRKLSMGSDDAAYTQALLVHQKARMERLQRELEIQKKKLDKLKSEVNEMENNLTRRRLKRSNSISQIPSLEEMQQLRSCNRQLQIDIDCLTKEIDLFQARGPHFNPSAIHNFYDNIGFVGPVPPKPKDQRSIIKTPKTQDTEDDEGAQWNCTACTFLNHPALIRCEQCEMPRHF
# T1 sequence (O43318 1-606 partner): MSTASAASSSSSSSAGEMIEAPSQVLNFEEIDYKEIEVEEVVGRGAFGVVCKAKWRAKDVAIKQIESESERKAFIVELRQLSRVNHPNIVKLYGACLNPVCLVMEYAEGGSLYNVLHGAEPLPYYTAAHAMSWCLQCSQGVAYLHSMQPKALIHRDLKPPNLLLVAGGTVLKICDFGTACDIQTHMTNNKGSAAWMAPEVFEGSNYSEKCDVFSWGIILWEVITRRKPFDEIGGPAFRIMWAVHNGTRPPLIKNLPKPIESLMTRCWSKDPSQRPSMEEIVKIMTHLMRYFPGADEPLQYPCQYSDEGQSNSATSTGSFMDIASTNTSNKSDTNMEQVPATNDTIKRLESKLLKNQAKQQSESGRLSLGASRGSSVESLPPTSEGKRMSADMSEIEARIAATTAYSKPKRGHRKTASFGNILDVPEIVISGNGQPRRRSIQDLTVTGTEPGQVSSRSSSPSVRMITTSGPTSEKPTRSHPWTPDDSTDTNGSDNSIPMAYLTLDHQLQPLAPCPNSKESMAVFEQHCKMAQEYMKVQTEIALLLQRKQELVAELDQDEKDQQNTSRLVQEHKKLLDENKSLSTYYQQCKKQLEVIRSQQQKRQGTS
# Outline: (§1)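 Read-out: interaction P-value combining Mascot scores, Phenyx scores and spectral counts (Fisher's method), plus fold reduction of median spectral counts on free-compound competition. Proteins were enriched from 10 mg cell lysate on c-ponatinib beads, then trypsin-digested for LC-MS/MS.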
# [2] = molecular target: T2, MAP3K7 (Homo sapiens, UniProt O43318); test: c-ponatinib pulldown LC-MS/MS; assay type: binding
# T2 sequence (O43318 1-606): T1 sequence (O43318 1-606 partner)
# Outline: as §1
smiles,measurement,setting,value
Cc1ccc(C(=O)Nc2ccc(CN3CCN(CCCN)CC3)c(C(F)(F)F)c2)cc1C#Cc1cnc2cccnn12 [c-ponatinib],Av. SC comp.,[1]; + free ponatinib,0
same,Total SC comp.,[1]; + free ponatinib,0
same,Av. SC,[1]; no competitor,2.5
same,Total SC,[1]; no competitor,10
same,Av. SC comp.,[2]; + free ponatinib,2.25
same,Total SC comp.,[2]; + free ponatinib,9
same,Av. SC,[2]; no competitor,19.5
same,Total SC,[2]; no competitor,78
